# According to patent publication US20200270216A1, “COMPOSITIONS AND METHODS FOR INHIBITING N-SMASE2” (The Regents of the University of California, priority 2017, published 2020):
# Entries after “also recorded” stand apart in the source; their conditions may differ.
# System: HEK293T Tau RD P301S FRET biosensor cells
# Assay: EV-mediated tau transfer assay
# Assay type: cell-based
# Procedure: For EV (extracellular vesicles)-mediated tau transfer assay, donor cells, transduced with AD-brain derived synaptosomal extracts (P2) or synthetic K18 seeds, were cultured for 48 hours in exosome-free medium with or without indicated concentration of tested compounds or DMSO for control, then medium was collected and EVs were purified using Exo-Quick-TC exosome purification kit (SBI, EXOTC10A-1) according to the manufacturing instructions. Naive recipient cells were plated at density 30,000 cells per well (96-well plates), grown for 12 hour in regular medium and then medium was exchanged to exosome-depleted medium, contained exosomes purified from donor cells (each well of recipients received amount of exosomes purified from one well of donor cells). Recipient cells were cultured in the presence of donor cell exosomes for 60 hrs. EV-mediated transfer assay scheme is presented at the FIG. 5A (right).
# HEK293T Tau RD P301S FRET biosensor cells were growing in the Dulbecco's Modified Eagle's medium (DMEM) with higher glucose, 10% FBS, and 1% Penicillin-streptomycin at 37° C./5% CO2. Cells were plated in 10-sm dishes (3 million cells per dish in the regular medium) and grown for 12 hrs. Cells assigned to be donors were transduced with pulled synaptosomal (P2) extracts from AD cases using lipofectamine 2000, according to the published literature with minor modifications. We used 35 μg of pulled AD or control (NL) material per one 10-sm dish (TableS1). Defrosted P2 extracts were sonicated in water bath sonicator for 10 minutes, and diluted with Opti-MEM serum reduced medium to the final volume 200 μL per 10-sm dish. In a separate tube lipofectamine 2000 were combined with Opti-MEM medium, based on 25 μl of lipofectamine and 175 μL OptiMEM medium per each 10-sm dish, and incubated for 10 minutes at room temperature (RT). Each P2 or NL extract mix (200 μl) and prepared lipofectamine 2000 mix (200 μl) were combined and incubated for 20 min at RT. Each 10-sm dish with cell received 400 μl of the final liposomes in the total volume of medium 5 ml per dish. Cultures treated with equal amount of empty liposomes were used as an additional control group. Cells were incubated with liposomes for 20 hrs.
# For “D+R” assay recipient cells were labeled with 1,1′-Dioctadecyl-3,3,3′,3′-tetramethylindodicarbocyanine (DiD) according to manufacturer's protocol (ThermoFisher V22887) on day 2. On day 3, donor cells were trypsinized (0.05% Trypsin/EDTA), washed with fresh exosome-free medium contained 10% of exosome-depleted FBS (ThermoFisher, A2720803). DiD-labeled recipient cells were also trypsinized and washed in exosome-free medium. […] FRET signal was detected using LSRII flow cytometer (BD biosciences). […]
smiles,measurement,setting,value
O=c1[nH]c(=S)[nH]c(-c2ccccc2)c1Cc1c(O)ccc2ccccc12 [cambinol],EV-mediated transfer of tau to recipient cells,"P2-seeded donor cells treated at 50 μM, 48 hours",decrease; also recorded: more effective than the nSMase2 inhibitor GW4869
same,reduction of EV-mediated transfer of tau seeds to naive recipient cells,inhibitor treatment of donor cells,8 times
